Substitutions are numbered along the chain they refer to.
Legend:
[1] = molecular target: T1, AtPPO1 S305L Y362F G404A (SEQ ID NO.129) (Arabidopsis thaliana, UniProt P55826, G404A/S305L/Y362F); assay: fluorescent Protoporphyrinogen Oxidase assay, crude extract; assay type: biochemical; conditions: read-out: percentage inhibition
T1 construct: made in house; host or cells: E. coli BL21 (DE3) hemG, crude extract
T1 sequence (P55826 35-537 S305L/Y362F/G404A): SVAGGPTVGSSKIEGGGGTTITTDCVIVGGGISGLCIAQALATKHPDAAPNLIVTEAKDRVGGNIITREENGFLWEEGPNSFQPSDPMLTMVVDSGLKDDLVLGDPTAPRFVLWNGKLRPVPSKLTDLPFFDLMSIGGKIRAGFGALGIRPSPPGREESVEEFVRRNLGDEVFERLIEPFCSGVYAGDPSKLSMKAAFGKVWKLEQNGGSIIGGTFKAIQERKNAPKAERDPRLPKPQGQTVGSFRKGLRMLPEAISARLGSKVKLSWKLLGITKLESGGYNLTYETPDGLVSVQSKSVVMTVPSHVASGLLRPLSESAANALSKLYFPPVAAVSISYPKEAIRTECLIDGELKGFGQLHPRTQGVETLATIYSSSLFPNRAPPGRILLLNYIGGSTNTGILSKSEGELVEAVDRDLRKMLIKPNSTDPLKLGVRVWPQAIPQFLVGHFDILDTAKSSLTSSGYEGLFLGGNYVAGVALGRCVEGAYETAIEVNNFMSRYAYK
Experimental: (§1) A pET24 plasmid containing a DNA sequence encoding each identified variant mutant of AtPPO1 derived from Arabidopsis thaliana, codon-optimised for expression in E. coli, and under control of a T7 promoter, was synthesised by Twist Bioscience. This plasmid was expressed in E. coli BL21 (DE3) hemG with 50 μg/mL kanamycin and 25 μg/mL chloramphenicol selection. Overnight cultures grown at 37° C. were used to inoculate 150 ml AIM (AIM-Terrific Broth Base including Trace elements, Formedium) in 500 ml shake flasks at a ratio of 1:100. Cultures were grown at 37° C., 200 rpm for 3 hours and then overnight at 26° C. Cells were harvested by 4° C. centrifugation for 20 minutes at 600 rpm. Cells were stored at −80° C. until extraction. 0.5-1 g of cell pellet from was thawed and resuspended in ratio of 1:1 in lysis buffer (20 mM Tris pH8, 500 mM sodium chloride, 10% glycerol, 1× complete Protease EDTA-free Inhibitor Tablet (Roche)). The resuspension was sonicated at 50% using 10-20 cycles of 10 seconds, 20 seconds off. After sonication Triton X-100 was added to the lysates at a final concentration of 0.5%. The lysates were centrifuged at 13.00 rpm for 10 min at 4° C. The crude extracts (i.e, supernatants) were stored at −80° C. Protein concentration was measured and calculated using the absorbance at 280 nm. Extracts were diluted 1 in 4 and 10 uL was analysed by SDS PAGE.
(§2) Variant crude extracts were assayed in a fluorescent Protoporphyrinogen Oxidase assay in black 384 well plates with a clear bottom. The total volume of the reaction mixture was 100 ul and contained 100 mM K2HPO4 pH7.2, 1 mM Na2EDTA, 5 mM DTT, 20% glycerol (v/v), 0.025% Tween 20 (v/v). Reactions were started with addition of 1 uM protoporphyrinogen IX final assay concentration. Fluorescence was monitored over 30 min using a Tecan plate reader with an excitation wavelength of 405 nm, emission wavelength of 635 nm, gain of 90 and 15 flashes. 10 ul of 3-fold serial dilution of crude extract in 100 mM K2HPO4 pH7.2, 1 mM Na2EDTA, 5 mM DTT, 20% glycerol (v/v), 0.05% Tween 20 (v/v) was tested in the assay against 1% DMSO and 100 ppm herbicide B to determine the correct amount of crude extract to add to the assay to observe activity. 10 ul of the appropriate crude extract dilution was then tested in the fluorescent Protoporphyrinogen Oxidase assay against DMSO and 10-fold dose response of each compound (herbicides A to E) with a top rate of 100 ppm.
(§3) The percentage inhibition was calculated as the activity in the presence of one of four concentrations of each herbicide compound A to E (note that the compounds labelled as A to E are identified hereinabove in the relevant section of the description) as a percentage of the enzyme activity in DMSO (Table 5).

[2] = molecular target: T2, AtPPO1 Y426M T461Q L479M (SEQ ID NO.132) (Arabidopsis thaliana, UniProt P55826, L479M/T461Q/Y426M); assay: as above; assay type: biochemical; conditions: read-out: percentage inhibition
T2 construct: made in house; host or cells: E. coli BL21 (DE3) hemG, crude extract
T2 sequence (P55826 35-537 Y426M/T461Q/L479M): T1 sequence (P55826 35-537 S305L/Y362F/G404A) with L271S, F328Y, A370G, Y392M, T427Q, L445M
Experimental: as §1, §2, §3

Compound | inhibition at 0.1 ppm [1] [%] | inhibition at 1 ppm [1] [%] | inhibition at 10 ppm [1] [%] | inhibition at 100 ppm [1] [%] | inhibition at 0.1 ppm [2] [%] | inhibition at 1 ppm [2] [%] | inhibition at 10 ppm [2] [%] | inhibition at 100 ppm [2] [%]
CCOC(=O)[C@]1(C)CC(c2cc(-n3c(=O)n(C)c(=S)n(C)c3=O)c(F)cc2Cl)=NO1 [Herbicide D, ethyl (5S)-3-[2-chloro-5-(3,5-dimethyl-2,6-dioxo-4-thioxo-1,3,5-triazinan-1-yl)-4-fluoro-phenyl]-5-methyl-4H-isoxazole-5-carboxylate] | 9 | 45 | 83 | 96 | 58 | 79 | 95 | 100
CCOC(=O)C1(C)CC(c2cc(-n3c(=O)cc(C(F)(F)F)n(C)c3=O)c(F)cc2Cl)=NO1 (stereo not shown) [Herbicide C, 3-(2-chloro-4-fluoro-5-(3-methyl-2,6-dioxo-4-trifluoromethyl-3,6-dihydropyrimidin-1(2H)-yl)phenyl)-5-methyl-4,5-dihydroisoxazole-5-carboxylic acid ethyl ester] | 24 | 76 | 93 | 100 | 26 | 54 | 75 | 100
C#CCN1C(=O)C(F)(F)Oc2cc(F)c(-n3c(=O)n(C)c(=S)n(C)c3=O)cc21 [Herbicide B, trifludimoxazin] | 70 | 93 | 97 | 100 | 100 | 100 | 100 | 100
CC(C)N(C)S(=O)(=O)NC(=O)c1cc(-n2c(=O)cc(C(F)(F)F)n(C)c2=O)c(F)cc1Cl [Herbicide E, saflufenacil] | 15 | 53 | 84 | 100 | 0 | 26 | 70 | 100
CCOC(=O)COc1ncccc1Oc1cc(-n2c(=O)cc(C(F)(F)F)n(C)c2=O)c(F)cc1Cl [Herbicide A, epyrifenacil] | 25 | 78 | 92 | 100 | 10 | 51 | 77 | 100
